This passage reports PKM2 dimers results from US12337005B2, “Methods of treating thrombosis” (UNIVERSITY OF IOWA RESEARCH FOUNDATION, priority 2020, dated 2025).

The target in this assay is T1, PKM2 dimers (Homo sapiens, UniProt P14618).
T1 construct: decreased PKM2 dimers in the human platelets stimulated with convulxin or thrombin; endogenous in cells; host or cells: human platelets from healthy volunteers
As to the kind of experiment: Native Western blot of PKM2 dimer and tetramer in stimulated human platelets. It counts as cell-based. To be noted: human platelets stimulated with convulxin (100 ng/ml) or thrombin (0.1 U/mL); vs vehicle. The method, then:
To obtain human platelets, blood was collected from healthy volunteers free from antiplatelet medication. Informed consent was taken. Platelets were prepared as described. Briefly, blood was collected in tubes containing anticoagulant citrate dextrose solution A and centrifuged at 180 g for 20 min. After addition of apyrase (0.6 U/ml) to PRP, platelets were sedimented by centrifugation at 800 g for 15 min. Cells were washed in buffer A (20 mM HEPES, 138 mM NaCl, 2.9 mM KCl, 1 mM MgCl2, 0.36 mM NaH2PO4, 1 mM EGTA (ethylene glycol tetraacetic acid), supplemented with 5 mM glucose, pH 6.2). Platelets were finally resuspended in buffer B (pH 7.4), which was the same as buffer ‘A’ but without EGTA and apyrase.
Platelet proteins were separated on 4-20% SDS-PAGE (sodium dodecyl sulfate-polyacrylamide gel electrophoresis) gradient gels and electrophoretic transferred to PVDF (polyvinylidene fluoride) membrane by using Bio-Rad western blotting system. For PKM2 dimer and tetramer study 6% native gels are used. Membranes were blocked with 5% BSA or skimmed milk in 10 mM Tris-HCl, 150 mM NaCl, pH 8.0 (TBS) containing 0.05% Tween-20 for one hour at room temperature. […] Blots were developed using enhanced chemiluminescence and quantified using Image J software from NIH (Bethesda, MD, USA).
(In western blotting, separated proteins are transferred to a membrane and probed.)

T1 sequence (P14618 2-531 limits assumed): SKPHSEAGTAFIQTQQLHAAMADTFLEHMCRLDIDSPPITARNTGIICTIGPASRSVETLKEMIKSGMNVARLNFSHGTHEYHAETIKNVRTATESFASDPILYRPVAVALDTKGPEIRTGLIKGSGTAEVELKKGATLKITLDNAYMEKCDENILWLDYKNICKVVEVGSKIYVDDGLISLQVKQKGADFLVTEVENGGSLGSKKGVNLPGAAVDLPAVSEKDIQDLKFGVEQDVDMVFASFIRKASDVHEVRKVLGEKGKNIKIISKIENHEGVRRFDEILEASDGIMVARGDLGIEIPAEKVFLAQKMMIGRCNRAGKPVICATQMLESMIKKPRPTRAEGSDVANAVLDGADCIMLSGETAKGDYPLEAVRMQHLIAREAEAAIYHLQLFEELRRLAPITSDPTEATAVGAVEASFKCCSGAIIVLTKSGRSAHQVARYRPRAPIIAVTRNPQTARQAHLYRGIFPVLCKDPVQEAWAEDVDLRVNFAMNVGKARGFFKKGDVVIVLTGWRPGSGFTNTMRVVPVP

As to `Cn1c2cc([S+](C)[O-])sc2c2cnn(Cc3cccc(N)c3)c(=O)c21` (stereo not shown) [ML265, 6-[(3-aminophenyl)methyl]-4,6-dihydro-4-methyl-2-(methylsulfinyl)-5H-thieno[2′,3′:4,5]pyrrolo[2,3-d]pyridazine-5-one], the PKM2 dimers result is given as “decreased”.
